Measured values as given in article PMC6566782, “Prodrugs for Skin Delivery of Menahydroquinone-4, an Active Form of Vitamin K2(20), Could Overcome the Photoinstability and Phototoxicity of Vitamin K2(20)” (International Journal of Molecular Sciences, 2019).

Legend:
[1] = Photostability in ethanol under artificial sunlight (12,000 lx), LC-MS/MS; type: physicochemical; details: 1 µM in ethanol
Protocol: The relative irradiance of artificial sunlight at wavelengths of 300 to 800 nm is almost equal to that of natural sunlight, according to the manufacturer. […] MKH-SUC concentration decreased according to an apparent first order rate both with and without shading, although the rate of decrease was accelerated without shading. MKH-DMG and MKH-SUC were more photostable than MK-4 by ca. 50- and 3-fold, respectively.
Solutions of MK-4 and MKH derivatives in ethanol (1 µM) were irradiated with artificial sunlight (SOLAX 100 W XC-100 B, Seric Ltd., Tokyo, Japan) at 12,000 lx in quartz cells. Illuminance was measured using a digital luminometer (LX-1108, Mother Tool). Irradiation samples (1 µM in ethanol) were irradiated with artificial sunlight at 12,000 lx, and with monochromatic light (279, 341, 373, 404, and 435 nm) using a multi-wavelength irradiation spectrometer (MM 3, Bunkoukeiki Co., Ltd., Tokyo, Japan). Irradiation intensity was measured using an irradiation energy measurement power meter (MM 3, Bunkoukeiki Co., Ltd.).
LC-MS/MS was performed using an LCMS-8050 Liquid Chromatograph Mass Spectrometer (Shimadzu, Kyoto, Japan) and Shimadzu HPLC System (system controller (CBM-20A), pump (LD-20AD), degasser (DGU-20As), UV detector (SPD-20A), and auto injector (SIL-20AC HT)). Separations were performed on a CAPCELL PAK C18 UG120 (3 μm, 2.0 mm × 100 mm, Shiseido Co., Ltd., Tokyo, Japan) using a mobile phase of 10 mmol/L ammonium acetate and 0.1% acetic acid in methanol and water (97:3) at a flow rate of 0.4 mL/min. Column temperature was maintained at 40 °C. The mass spectrometer was equipped with an electrospray ionization and was run in positive ion mode. Identification and quantitation were based on MS/MS-multiple reaction monitoring mode using transition ions as follows: m/z 445 → 187 for the [M+H]^+ MK-4 adduct, m/z 445 → 187 for the [M + H]^+ chromenol adduct, 619 → 58 for the [M + H]^+ MKH-DMG adduct, m/z 532 → 58 for the [M + H]^+ MKH-mono-DMG adduct, m/z 664 → 187 for the [M + H]^+ MKH-SUC adduct, m/z 564 → 187 for the [M + H]^+ MKH-mono-SUC adduct, and m/z 461 → 81 for the [M + H]^+ MKO adduct.

[2] = Singlet oxygen generation assay (p-nitrosodimethylaniline-based ROS assay) after UVA irradiation; type: physicochemical; details: phosphate-buffered aqueous solution pH 7.4, UVA irradiation 0–15 J/cm^2
Protocol: It has been reported that singlet oxygen promotes the peroxidation of skin surface lipids, resulting in the induction of skin inflammation. Thus, we measured the irradiation intensity-dependent generation of singlet oxygen by MK-4, MKH-DMG, and MKH-SUC in phosphate-buffered aqueous solution after UVA irradiation using a p-nitrosodimethylaniline-based ROS assay (Figure 4).
MK-4 and MKH derivatives were dissolved in a phosphate buffer (NaPB, pH 7.4) containing 0.2% polyoxyethylene hydrogenated castor oil 40 (HCO 40, obtained as a gift sample from Nikko Chemicals Co., Ltd., Osaka, Japan), 2% dimethyl sulfoxide, and 0.1% glycerol. The solutions were treated according to the singlet oxygen assay method (The Japanese Center for the Validation of Alternative Methods, JaCVAM) and irradiated with UVA light from a CL-1000L UV Crosslinker (UVP, Upland, CA, USA). Absorbance was measured using an Infinite M200 PRO (Tecan Life Sciences, Zurich, Switzerland).

[3] = test system: HaCaT cells; assay: Intracellular MKO and MK-4 levels after treatment with MK-4 and MKH derivatives (MKH delivery), LC-MS/MS; type: cell-based, Human; details: 5 µM compound, intracellular MK-4, mean ± SD (n = 3)
Protocol: The potential of MKH derivatives and MK-4 as dermal delivery systems of MKH were assessed by measuring intracellular MKH levels. However, accurate measurement of MKH is difficult because MKH is readily oxidized to MK-4. […] Thus, MKO levels in HaCaT cells can reflect the amount of MKH delivered into the cell and subsequently converted in the carboxylation of VKDP. In addition, MK-4 level in cells after MKH prodrugs treatment indicates the oxidative product of MKH. In this study, the intracellular concentration of MKO and MK-4 in HaCaT cells over time after treatment with MK-4, MKH-DMG, or MKH-SUC (5 μM) was determined by LC-MS/MS (Figure 7). HaCaT cells were seeded at 5.0 × 10^4 cells/well in 24-well plates and allowed to attach for 48 h. Cells were cultured in medium containing 5 μM MK-4, MKH-DMG, or MKH-SUC, then medium was removed and cells were washed twice with PBS. Cells were collected in 500 μL of PBS and sonicated. Cell homogenates were combined with an equal volume of methanol and three times volume of n-hexane, vortexed for 2 min, and centrifuged at 1750× g for 10 min. […] The residue was reconstituted with 20 μL of methanol, and subjected to LC-MS/MS, as described below. The protein concentration of the cell homogenate was determined using a BCA protein assay kit (Thermo Fisher Scientific, Waltham, MA, USA). […]

apparent first order rate constant (k) of degradation ([1]; artificial sunlight 12,000 lx, 25 °C): 8.239 h⁻¹
concentration change under shading ([1]; shading, 25 °C): unchanged under shading
main degradation product ([1]; sunlight irradiation (MKH-SUC also under shading)): MK-4 chromenol
half-life at 1 µM ([1]; ethanol solution in quartz cells, artificial sunlight 12,000 lx, 25 °C, read-out: half-life (t1/2) of degradation (converted)): 5.04 min
AUCMK-4 (0–72 h) [3]: 5.628 ± 0.698 nmol·h/mg of Protein
SMILES: CC(C)=CCC/C(C)=C/CC/C(C)=C/CC/C(C)=C/CC1=C(C)C(=O)c2ccccc2C1=O [MK-4, menaquinone-4, reference compound]
singlet oxygen generation [2]: increased formation of singlet oxygen in an irradiation energy-dependent manner
